Measurements published in patent US9095573B2, “Method of biasing implanted human neural stem cells away from differentiation into glial cells by (+)phenserine to modulate the concentration of soluble βAPP in tissue or CSF” (priority 2005, dated 2015).

How the values were obtained:
[1] = system: transplanted human neural stem cells (HNSCs); assay: Glial differentiation of transplanted HNSCs (BrdU+/GFAP+ cell counts, fluorescent immunohistochemistry); format: in vivo, APP23 and wild-type mice; details: hippocampus of wild-type mice; 6 weeks after HNSC transplantation; 25 mg/kg
Experimental: (§1) HNSCs originally isolated from fetal cortical tissue were purchased from BioWhittaker (Walkersville, Md.) and the cells were expanded and passaged in a serum-free culture medium, as described in detail previously (Brannen and Sugaya, 2000). Briefly, HNSCs were cultured in 20 ml serum-free supplemented growth medium consisting of Ham's F12/DMEM (Gibco, Burlington, ON), EGF (20 ng/ml, R & D Systems), FGF (20 ng/ml, R & D Systems, Minneapolis, Minn.), B27 (1:50, Gibco), heparin (5 μg/ml, Sigma, St. Louis, Mo.) and antibiotic-antimycotic mixure (1:100, Gibco) at 37° C. in a 5% humidified incubation chamber (Brannen and Sugaya, 2000). Prior to transplantation, HNSCs were incubated with 3 μM bromo-deoxyuridine (BrdU, Sigma) for 48 hr to label cell nuclei to distinguish them from the host cells.
(§2) Animals were subsequently divided into two groups that were either sacrificed following 14 days treatment (n=17 APP23 and n=13 wild-type, respectively) or received transplantation of HSNC into the lateral ventricle (n=13 APP23 mice and n=12 wild-type, respectively). […] Brains were removed, dissected into the hippocampus and cortex, and tissue samples were maintained on dry ice and stored at −80° C. until Western blotting and PCR experiments were performed. For the group of transplanted animals, these were transcardially perfused with PBS and 4% paraformaldehyde (pH 7.4). […]

[2] = system: transplanted human neural stem cells (HNSCs); assay: Neuronal differentiation of transplanted HNSCs (BrdU+/β-III tubulin+ cell counts, fluorescent immunohistochemistry); format: in vivo, APP23 and wild-type mice; details: wild-type mice, CA1 hippocampal region only; p<0.05; 25 mg/kg
Experimental: as §1, §2

[3] = system: APP mRNA; assay: Real time RT-PCR analysis of APP gene expression in cortical and hippocampal tissues; format: in vivo; details: both APP23 and wild-type mice
Experimental: as §2, with “7.4). Brains were removed and post-fixed for 8-12 h in 4% paraformaldehyde, and cryoprotected in 20% sucrose-PBS overnight.” for “7.4).”
Total RNA from hippocampal and cortical tissues from each animal treated with either (+)-phenserine or saline was isolated with Trizol reagent (Invitrogen) according to the manufacturer's protocol. […] Relative quantification with Real-time PCR was determined using the MyiQ Real-Time PCR Detection System Software (Bio-Rad), and reactions were performed in a thermal iCycler using the Bio-Rad MyiQ IQ SYBR Green Supermix (Bio-Rad) according to the following conditions; denaturation of cDNA for 5 min at 94° C.; amplification (40 cycles) for 30 sec at 94° C., annealing at 56° C. for 30 sec, and extension at 72° C. for 30 sec, with a final extension at 72° C. for 5 min. […]

[4] = system: cholinesterase; details: Greig et al., U.S. Patent Pub. 2004/0024043 and 2004/0138282; cited from earlier work

(+)-phenserine
difference in number of BrdU+/GFAP+ double immuno-positive cells [1]: No significant differences | increase in number of BrdU+/β-III tubulin+ cells [2]: 40% | change in APP gene expression [3]: no significant changes | cholinesterase activity [4]: lacks cholinesterase activity
